Test results taken from article PMC10269871, “Small Molecule Inhibition of an Exopolysaccharide Modification Enzyme is a Viable Strategy To Block Pseudomonas aeruginosa Pel Biofilm Formation” (Microbiology Spectrum, 2023).

Molecular target: T1, PelA (Pseudomonas aeruginosa, UniProt Q9HZE4)
T1 construct: PelAΔ46Chis6, residues 47 to 948, C-terminal His6
Experiment: fluorogenic AMMU esterase assay with purified PelA, Michaelis-Menten global noncompetitive fit (IC50 […]); reversible by gel filtration
Assay type: biochemical

T1 sequence (Q9HZE4 entry or part of it): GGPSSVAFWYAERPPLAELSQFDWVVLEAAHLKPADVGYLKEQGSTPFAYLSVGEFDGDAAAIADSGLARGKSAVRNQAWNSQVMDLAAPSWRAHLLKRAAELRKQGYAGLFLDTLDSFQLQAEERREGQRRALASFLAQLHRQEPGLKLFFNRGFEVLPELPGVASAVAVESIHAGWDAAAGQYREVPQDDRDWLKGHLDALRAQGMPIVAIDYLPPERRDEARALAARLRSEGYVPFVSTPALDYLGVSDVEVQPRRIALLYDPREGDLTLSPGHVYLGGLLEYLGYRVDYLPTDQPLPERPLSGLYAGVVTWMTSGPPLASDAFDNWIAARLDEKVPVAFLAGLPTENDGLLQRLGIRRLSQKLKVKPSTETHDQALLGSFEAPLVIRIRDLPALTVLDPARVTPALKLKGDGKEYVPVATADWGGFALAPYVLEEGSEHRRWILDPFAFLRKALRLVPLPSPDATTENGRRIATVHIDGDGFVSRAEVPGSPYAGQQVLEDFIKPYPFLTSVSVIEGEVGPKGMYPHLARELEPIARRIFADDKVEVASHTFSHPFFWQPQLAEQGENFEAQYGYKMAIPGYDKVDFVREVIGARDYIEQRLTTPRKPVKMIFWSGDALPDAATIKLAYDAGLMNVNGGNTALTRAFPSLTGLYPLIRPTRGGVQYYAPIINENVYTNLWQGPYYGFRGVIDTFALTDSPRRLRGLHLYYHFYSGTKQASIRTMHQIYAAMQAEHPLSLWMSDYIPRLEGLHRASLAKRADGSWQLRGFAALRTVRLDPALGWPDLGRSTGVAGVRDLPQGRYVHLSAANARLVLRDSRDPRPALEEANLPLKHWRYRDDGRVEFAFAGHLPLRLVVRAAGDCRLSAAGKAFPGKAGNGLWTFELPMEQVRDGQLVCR

For `CSC(=S)N/N=C/c1ccccn1` [SK-017154-O, methyl 2-(2-pyridinylmethylene) hydrazinecarbodithioate], the Ki was 1130 ± 30 nM.
